Columns and labels:
[1] = tested on: Met protein; assay: Western blotting of Met phosphorylation in resistant NCI-H1581 cells; format: cell-based; conditions: 300 nM, 30 minutes
Experimental: FIG. 1: Western blotting of protein lysates derived from parental and resistant NCI-H1581 cells treated without (−) or with (+) Met inhibitor, 300 nM compound C, for 30 minutes.
(§1) Therefore the parental and resistant cells were profiled on phosphoRTK (receptor tyrosine kinase) arrays, and also for Met total protein expression and phosphorylation. The sensitivity of the cells to selected Met inhibitors (compound C and D) in the Alamar blue proliferation assay was also tested. […] Parental NCI-H1581 cells had very low detectable levels of Met protein, and no signal for Met protein phosphorylation (see FIG. 1).

[2] = tested on: resistant NCI-H1581 cells; assay: Alamar blue proliferation assay, resistant NCI-H1581 cells; format: cell-based; conditions: for IC50: Resistant cells, 4 days incubation, repeated experiments
Experimental: The insensitive cells were isolated and profiled with the aim to determine the active signaling pathways that act as drivers for their survival and/or proliferation. Therefore, NCI-H1581 cells were plated onto 10 cm Collagen I coated plates and placed in an incubator at 37° C., 5% CO2. […] In the case of the parental cells with or without DMSO control, when the cells reached the confluence close to 100% they were trypsinized and re-plated back on the plate. In the compound treated plates outgrowth of resistant clones were observed. After about 3 weeks from the initial treatment, cells were taken out of the plate by trypsinization and passaged on new plate for further expanding. […] (test 1)
as §1
(§2) Cells were seeded in 180 μl of medium at optimized cell densities in black 96 well plates with clear flat bottom. The outer wells were filled with 180 μl of medium. Cells were incubated for 24 hours at 37° C. and 5% CO2.
(§3) Next day compound dilutions were prepared in a 96 well plate with round bottom (Corning #3365). A 50× dilution of the compound was prepared in medium, 4 μl of compound stock in 196 μl of medium in a 96 well plate (Corning #3585).
(§4) Compound/medium plates were placed on a shaker for 10 minutes and then 20 μl of compound in medium was added to the cells (10× dilution). Cells were incubated at 37° C. and 5% CO2 for 4 days until alamarBlue® readout.
(§5) After 4 days of incubation with compound: Add 40 μl of alamarBlue® ready to use mix to each well. Incubate plates at 37° C. and 5% CO2. Measure plates after 4 or 6 hours of incubation (depends on cell line). Shake plates and measure RFU at ex.: 544 nm and em.: 590 nm
(§6) The alamarBlue® Assay incorporates a fluorometric/colorimetric growth indicator based on detection of metabolic activity. Specifically, the system incorporates an oxidation-reduction (REDOX) indicator that both fluoresces and changes color in response to chemical reduction of growth medium resulting from cell growth.

[3] = tested on: parental NCI-H1581 cells; assay: Alamar blue proliferation assay, parental NCI-H1581 cells; format: cell-based; conditions: for IC50: 4 days incubation
Experimental: (§7) Therefore, NCI-H1581 cells were plated onto 10 cm Collagen I coated plates and placed in an incubator at 37° C., 5% CO2. […] In the case of the parental cells with or without DMSO control, when the cells reached the confluence close to 100% they were trypsinized and re-plated back on the plate. […] After about 3 weeks from the initial treatment, cells were taken out of the plate by trypsinization and passaged on new plate for further expanding. […] (test 1)
Therefore the parental and resistant cells were profiled on phosphoRTK (receptor tyrosine kinase) arrays, and also for Met total protein expression and phosphorylation. The sensitivity of the cells to selected Met inhibitors (compound C and D) in the Alamar blue proliferation assay was also tested.
as §2, §3, §4, §5, §6

[4] = tested on: Parental, unsorted H1581 cells; assay: Incucyte live cell imaging proliferation, parental unsorted H1581 cells; format: cell-based; design: dose or concentration left out as unconfirmed; conditions: four days
Experimental: Inhibition of growth of H1581^MET(+) cells by combination of FGFR and MET inhibitors. Parental, unsorted H1581 cells, and sorted H1581^Met(+) cells, subpopulation of H1581 cells that have high Met expression, were plated at 75000 cells per well in 24 well plate. […] Images were acquired every two hours. Proliferation of cells was presented as the mean of percentage of confluence±SD (n=2).

[5] = tested on: NCI-H1581 cells; assay: Incucyte proliferation (confluence over time), prolonged treatment of NCI-H1581 cells; format: cell-based; conditions: 1 microM each agent
Experimental: as §7
The proliferation of the cells was followed using the Incucyt machine, measuring the confluence of the cells over time.

[6] = tested on: resistant NCI-H1581 xenografts; assay: In vivo study, resistant NCI-H1581 xenografts; design: species or system Athymic nude mice; conditions: compound A 25 mg/kg p.o. QD for 37 d
Experimental: Athymic nude mice were inoculated with resistant NCI-H1581 cells (10e^6 cells/200 μl with matrigel, ratio 1:1, into the inguinal region of the mice).
All mice (84) were put into groups (4) and treated from the day of the cell injection.
The mice were treated orally (po), normal volume (250 μl/25 g) once daily and this for 37 days (QD×37). Measurement of the tumor volume was done at day 0, 5, 12, 15, 20, 23, 27, 30, 33, 37.
At day 37 all animals were sacrificed.

[7] = tested on: most sensitive cancer cell lines; assay: Alamar blue cell based proliferation assay, most sensitive cancer cell lines
Experimental: as §2, §3, §4, §5, §6

[8] = tested on: Met oncogene; assay: Microarray gene expression profiling of resistant versus parental NCI-H1581 cells; format: cell-based; conditions: 1 microM, 1 day, 1 week and 2 weeks
Experimental: as §7

[9] = Homo sapiens, NCI-H1581, 96 h, Parental cells

IC50 ([2]; Homo sapiens, NCI-H1581, 96 h) [nM] | IC50 [2] [nM] | Compound | proliferation of the resistant NCI-H1581 cells (in words) [2] | proliferation of the parental NCI-H1581 cells (in words) [3] | IC50 [3, 9] [nM] | also measured
– | – | Cn1cc(-c2ccc3nnc(C(F)(F)c4ccc5ncccc5c4)n3n2)cn1 [compound C, 6-{Difluoro[6-(1-methyl-1H-pyrazol-4-yl)[1,2,4]triazolo[4,3-b]pyridazin-3-yl]methyl}quinoline] | strongly inhibited | but not of the parental NCI-H1581 cells | > 30000 | Met phosphorylation [1]: down regulated significantly
198 | 165 | C[C@@H](Oc1cc(-c2cnn(C3CCNCC3)c2)cnc1N)c1c(Cl)ccc(F)c1Cl [crizotinib, reference compound] | – | – | 6910 | IC50 ([3]; Parental cells): 4950 nM
– | – | COc1cc(OC)cc(N(CCNC(C)C)c2ccc3ncc(-c4cnn(C)c4)nc3c2)c1 [compound A, N-(3,5-dimethoxyphenyl)-N′-(1-methylethyl)-N-[3-(1-methyl-1H-pyrazol-4-yl)quinoxalin-6-yl]ethane-1,2-diamine] | – | – | – | cell growth (confluence) [4]: equally inhibited; emergence of resistance (outgrowth of insensitive cells) ([5]; continuous treatment): after about three weeks emerging outgrowth of compound insensitive cells was observed; tumor growth [6]: did not have effect on tumor growth
341 | 444 | FC(F)(c1ccc2ncccc2c1)c1nnc2ccc(-c3ccncc3)nn12 [compound D, 6-[Difluoro(6-pyridin-4-yl[1,2,4]triazolo[4,3-b]pyridazin-3-yl)methyl]quinoline] | strongly inhibited | but not of the parental NCI-H1581 cells | > 10000 | proliferation (confluence of the cells over time) [5]: did not impact the proliferation; IC50 ([3]; Homo sapiens, NCI-H1581, 96 h, Parental cells + DMSO): > 30000 nM
– | – | COc1cc(OC)c(F)c(N(Cc2ncc[nH]2)c2ccc3ncc(-c4cnn(C)c4)nc3n2)c1 [compound B, N-(2-fluoro-3,5-dimethoxyphenyl)-N-(1H-imidazol-2-ylmethyl)-3-(1-methyl-1H-pyrazol-4-yl)pyrido[2,3-b]pyrazin-6-amine] | – | – | – | IC50 [7]: < 10 nM; Met oncogene expression (microarray) [8]: upregulated in a time dependent manner

— US10716787B2, “Combinations” (ASTEX THERAPEUTICS LTD, priority 2014, dated 2020)
